# Test results: patent US9969858B2, “Metalloinsertor conjugates” (CALIFORNIA INSTITUTE OF TECHNOLOGY, priority 2015, dated 2018)
# Test system: duplex DNA containing a CC mismatch
# Assay: Photocleavage of mismatched DNA upon irradiation (competition titration)
# Assay type: biochemical
# Conditions: 340-440 nm irradiation
# Procedure: For [RhPt] Conjugate, a single-stranded DNA oligomer with the sequence [NT]. ID NO: 2) (underline denotes the mismatch) was labeled at the 5'-end with [^32P]-ATP and polynucleotide kinase (PNK) at 37° C. for 1 h. The radiolabeled DNA was purified by gel electrophoresis and annealed to its mismatched complement (containing a CC mismatch) by heating to 90° C. in buffer (100 mM NaCl, 20 mM NaPi, pH 7.1), followed by slow cooling to ambient temperature over 3 h, to give a final concentration of 2 μM duplex DNA. Racemic solutions of the metal complex (containing all stereoisomers) were prepared in Milli-Q water over a range of concentrations (100 nM-50 μM). For each sample, 4 μM […] (5 μl), which photocleaves DNA at mismatched sites, 2 μM annealed mismatched duplex DNA (10 μl), and the non-photocleaving competitor complex at various concentrations (5 μl) were combined to give 1 μM […] and 1 μM duplex DNA as the final concentrations. […] The amounts of DNA in each band were analyzed by autoradiography and quantitated by phosphorimagery (ImageQuant) (FIG. 20). […] To assess the binding of the rhodium subunit of RhPt at the CC mismatch, the fraction of cleaved DNA was quantified and expressed as a percentage of the total DNA in each lane and plotted against the log of the concentration of RhPt. […]
row,Substance,photocleavage of DNA upon irradiation
1,[Rh(chrysi)(HDPA)(Amal)Pt(DACH]^3+ [RhPt],does not photocleave DNA
2,rac-[Rh(bpy)2chrysi]Cl3 [rac-[Rh(bpy)2chrysi]3+],does photocleave DNA at mismatched sites
